{"source": "patent US9370503B1", "about": "“Compounds for treating ocular diseases” (priority 2015, dated 2016)", "key": {"HUVECs [1]": {"tested_on": "HUVECs", "assay": "NaN3-induced injury in HUVECs (MTT)", "assay_type": "cell-based, human", "settings": "72 hours", "protocol": "(§1) ARPE-19 cells were grown in DMEM/F12 medium supplemented with 10% FBS, 100 units/ml penicillin G, and 100 μg/ml streptomycin sulfate. HUVECs were grown in vascular cell basal medium supplemented with endothelial cell growth kit. Cells were incubated in a humidified incubator at 37° C. under 5% CO2 and 95% air.\n(§2) MTT assay was used to measure the viability of ARPE-19 cells and HUVECs. 2×10^5 ARPE-19 cells or 5×10^4 HUVECs were seeded in 96-well plates (100 μl/well) and allowed to grow overnight. Negative control was prepared by adding 100 μl medium without cells. The cells were then treated with fresh medium with a compound of Formula (II) (“(II)”) (0.03, 0.1, 0.3, 1, 3 and 10 μg/ml) and/or oxidants (NaIO3, H2O2, t-BHP and NaN3) for 12, 24, or 72 hours (200 μl/well). The vehicle control group was treated with vehicle. 20 μl MTT (5 mg/ml) was added to wells, and incubated for another 4 h. After incubation, the medium was discarded and 100 μl DMSO was added to solubilize formazan produced from MTT by the viable cells. Absorbance was measured at 570 nm using a microplate reader (Bio-Rad Laboratories, Inc., CA). Cells viability was calculated according to the following formula: Viability of cells (%)=(absorbance in tested sample−absorbance in negative control)/(absorbance in vehicle control−absorbance in negative control)×100%."}, "HUVECs [2]": {"tested_on": "HUVECs", "assay": "MTT assay, proliferation/cytotoxicity in HUVECs", "assay_type": "cell-based, human", "settings": "72 hours", "protocol": "as §1, §2"}, "[3]": {"tested_on": "rat's retinal function after ischemic insult", "assay": "b-wave recovery of retinal function after ischemic insult (ERG)", "assay_type": "in vivo", "settings": "1% instilled topically", "protocol": "The retinal ischemia experiment has been described previously (Chiou et al., J. Ocular Pharmacol. 9:179-185, 1993, and Chiou et al., J. Ocular Pharmacol. 10:493-498, 1994). Electroretinograms (ERG) were carried out to assess the retinal function prior to and after the ischemic insult. ERGs were recorded using Ag/AgCl electrodes placed in contact with the cornea. One stainless steel needle was inserted subcutaneously between the two eyes as a reference electrode, and another needle was inserted subcutaneously into the neck as a ground electrode. A photostimulator (Grass PS22 Flash) was used to produce flashes of light 5 inches from the eye, and the ERG potentials were recorded on a polygraph. The ERG system was purchased from LKC Technologies, Inc. (Gaithersburg, Md.). A single flash (10 msec) of white light stimuli was used to evoke ERG a- and b-waves. Peak b-wave amplitudes were measured from the trough of the a-wave to the peak of the b-wave.\nLong-Evans rats (200-250 g), dark-adapted at least 2 hours, were anaesthetized intramuscularly with ketamine (35 mg/kg) plus xylazine (5 mg/kg). Half of the initial dose was administrated at one hour intervals to maintain adequate anesthesia. The pupils were dilated with 1% tropicamide (50 μl) for ERG experiments. Retinal ischemia was produced by occlusion of the central retina and posterior ciliary arteries using a ligature placed around the optic nerve and posterior ciliary artery. The ligature was drawn tightly through a micropipette tip placed at the base of the eyeball socket to occlude the retinal vessels for 30 min. After 30 min of retinal ischemia, the ligature was liberated and the retinal arteries allowed to reperfuse. ERGs were measured at 30, 60, 90, 120, 180 and 240 min thereafter. The compounds and vehicle were administered topically before occlusion of the central retinal arteries."}, "ARPE-19 cells [4]": {"tested_on": "ARPE-19 cells", "assay": "NaN3-induced injury in ARPE-19 cells (MTT)", "assay_type": "cell-based, human", "settings": "0.03 μg/ml to 10 μg/ml compound, 72 hours", "protocol": "as §1, §2"}, "ARPE-19 cells [5]": {"tested_on": "ARPE-19 cells", "assay": "H2O2-induced injury in ARPE-19 cells (MTT)", "assay_type": "cell-based, human", "settings": "10 μg/ml compound, 24 hours", "protocol": "as §1, §2"}, "HUVECs [6]": {"tested_on": "HUVECs", "assay": "H2O2-induced injury in HUVECs (MTT)", "assay_type": "cell-based, human", "settings": "24 hours; for enhancement of H2O2-induced injury in HUVECs: 10 μg/ml compound", "protocol": "as §1, §2"}}, "data": [{"smiles": "CC(C)=CCC/C(C)=C/Cc1c([C@@H]2CC(=O)c3c(cc(O)c(CC=C(C)C)c3O)O2)ccc(O)c1O", "note": "[Formula (II)]", "values": [{"measurement": "enhancement of NaN3-induced injury in HUVECs", "setting": "HUVECs [1]; 0.3 mM NaN3, 3 μg/ml compound", "value": 75, "unit": "%"}, {"measurement": "enhancement of NaN3-induced injury in HUVECs", "setting": "HUVECs [1]; 0.3 mM NaN3, 10 μg/ml compound", "value": 95, "unit": "%"}, {"measurement": "enhancement of NaN3-induced injury in HUVECs", "setting": "HUVECs [1]; 1 mM NaN3, 10 μg/ml compound", "value": 75, "unit": "%"}, {"measurement": "enhancement of NaN3-induced injury in HUVECs", "setting": "HUVECs [1]; 3 mM NaN3, 3 μg/ml compound", "value": 44, "unit": "%"}, {"measurement": "enhancement of NaN3-induced injury in HUVECs", "setting": "HUVECs [1]; 3 mM NaN3, 10 μg/ml compound", "value": 71, "unit": "%"}, {"measurement": "effect on proliferation of HUVECs", "setting": "HUVECs [2]; 0.03 μg/ml to 3 μg/ml", "value": "did not affect"}, {"measurement": "inhibition at 10 µg/mL", "setting": "HUVECs [2]; Homo sapiens, HUVEC, 10 μg/ml", "value": 92, "unit": "%"}, {"measurement": "potency in b-wave recovery", "setting": "[3]", "value": "about the same as 1% (I)"}, {"measurement": "duration of drug action on b-wave recovery", "setting": "[3]; after drug application", "value": 120, "unit": "min"}, {"measurement": "effect on NaN3-induced injury in ARPE-19 cells", "setting": "ARPE-19 cells [4]", "value": "significantly reversed"}, {"measurement": "reversal of H2O2-induced injury in ARPE-19 cells", "setting": "ARPE-19 cells [5]; 200 μM H2O2", "value": 55, "unit": "%"}, {"measurement": "reversal of H2O2-induced injury in ARPE-19 cells", "setting": "ARPE-19 cells [5]; 400 μM H2O2", "value": 72, "unit": "%"}, {"measurement": "enhancement of H2O2-induced injury in HUVECs", "setting": "HUVECs [6]; 200 μM H2O2", "value": 63, "unit": "%"}, {"measurement": "enhancement of H2O2-induced injury in HUVECs", "setting": "HUVECs [6]; 400 μM H2O2", "value": 42, "unit": "%"}, {"measurement": "effect on H2O2-induced injury in HUVECs", "setting": "HUVECs [6]; 0.3 and 1 μg/ml compound", "value": "reversed"}]}]}
